Source: PubChem BioAssay AID1963971 (Molecular Pharmacology Branch, DTP, NCI, 2024)

Test system: 953936-095-R-J2-PDC spheroids with HUVEC/MSC, viability
Experiment: Anticancer human tumor 953936-095-R-J2-PDC patient-derived cervical squamous cell carcinoma cell line growth inhibition [PI3K]
Conditions: for IC50: curve of first compound; for viability, T/C: stronger effect = lower value
Method in brief: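 Three cell types, namely tumor cells, endothelial cells and mesenchymal stem cells, formed each spheroid. Combinations with four PI3K inhibitors were screened at clinically achievable concentrations decreasing by half-log, and spheroid viability was recorded.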

[1] = second compound 0.0316 µM, first compound 0.0316 µM
[2] = second compound 0.0316 µM, first compound 0.1 µM
[3] = second compound 0.0316 µM, first compound 0.316 µM
[4] = second compound 0.0316 µM, first compound 1 µM
[5] = second compound 0.0316 µM, first compound 3.16 µM
[6] = second compound 0.0316 µM, first compound 10 µM
[7] = second compound 0.1 µM, first compound 0.0316 µM
[8] = second compound 0.1 µM, first compound 0.1 µM
[9] = second compound 0.1 µM, first compound 0.316 µM
[10] = second compound 0.1 µM, first compound 1 µM
[11] = second compound 0.1 µM, first compound 3.16 µM
[12] = second compound 0.1 µM, first compound 10 µM
[13] = second compound 0.316 µM, first compound 0.0316 µM
[14] = second compound 0.316 µM, first compound 0.1 µM
[15] = second compound 0.316 µM, first compound 0.316 µM
[16] = second compound 0.316 µM, first compound 1 µM
[17] = second compound 0.316 µM, first compound 3.16 µM
[18] = second compound 0.316 µM, first compound 10 µM
[19] = second compound 1 µM, first compound 0.0316 µM
[20] = second compound 1 µM, first compound 0.1 µM
[21] = second compound 1 µM, first compound 0.316 µM
[22] = second compound 1 µM, first compound 1 µM
[23] = second compound 1 µM, first compound 3.16 µM
[24] = second compound 1 µM, first compound 10 µM
[25] = second compound 3.16 µM, first compound 0.0316 µM
[26] = second compound 3.16 µM, first compound 0.1 µM
[27] = second compound 3.16 µM, first compound 0.316 µM
[28] = second compound 3.16 µM, first compound 1 µM
[29] = second compound 3.16 µM, first compound 3.16 µM
[30] = second compound 3.16 µM, first compound 10 µM
[31] = second compound 10 µM, first compound 0.0316 µM
[32] = second compound 10 µM, first compound 0.1 µM
[33] = second compound 10 µM, first compound 0.316 µM
[34] = second compound 10 µM, first compound 1 µM
[35] = second compound 10 µM, first compound 3.16 µM
[36] = second compound 10 µM, first compound 10 µM
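Note: spheroids exposed to compounds for seven days before read-out.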

In the case of `C#Cc1c(F)ccc2cc(O)cc(-c3ncc4c(N5CC6CCC(C5)N6)nc(OCC56CCCN5CC(F)C6)nc4c3F)c12` (stereo not drawn) + CC(Nc1ncnc2nc[nH]c12)c1cc2cccc(Cl)c2c(=O)n1-c1ccccc1, the IC50 (second compound 0.0316 µM) is reported as > 10 µM, the IC50 (second compound 0.1 µM) is reported as > 10 µM and the IC50 (second compound 0.316 µM) is reported as > 10 µM. For the same molecule, the IC50 (second compound 1 µM) was > 10 µM, the IC50 (second compound 3.16 µM) was 6.34 µM and the IC50 (second compound 10 µM) was 1.8 µM. For the same molecule, the viability, T/C [1] was 90.6%, the viability, T/C [2] was 91.9% and the viability, T/C [3] was 105%. The viability, T/C [4] was 97.1%, the viability, T/C [5] was 91.3% and the viability, T/C [6] was 67.2%. The viability, T/C [7] was 95.2%, the viability, T/C [8] was 98.3% and the viability, T/C [9] was 99.9%. The viability, T/C [10] was 104%, the viability, T/C [11] was 80.2% and the viability, T/C [12] was 70.8%. For the same molecule, the viability, T/C [13] was 94%, the viability, T/C [14] was 95.2% and the viability, T/C [15] was 90.5%. It also gave a viability, T/C [16] of 82.2%, a viability, T/C [17] of 75.2% and a viability, T/C [18] of 67.8%. The viability, T/C [19] was 96.2%, the viability, T/C [20] was 83.5% and the viability, T/C [21] was 84.7%. For the same molecule, the viability, T/C [22] was 86.9%, the viability, T/C [23] was 80% and the viability, T/C [24] was 57.2%. The viability, T/C [25] was 87.9%, the viability, T/C [26] was 79.5% and the viability, T/C [27] was 76%. The viability, T/C [28] was 74.3%, the viability, T/C [29] was 60.3% and the viability, T/C [30] was 42.6%. For the same molecule, the viability, T/C [31] was 55.8%, the viability, T/C [32] was 65.4% and the viability, T/C [33] was 51.7%. The viability, T/C [34] was 57.3%, the viability, T/C [35] was 43.3% and the viability, T/C [36] was 31.2%.
In the case of `C=CC(=O)N1CCN(c2nc(=O)n(-c3c(C)ccnc3C(C)C)c3nc(-c4c(O)cccc4F)c(F)cc23)C(C)C1` (stereo not drawn) + CC(Nc1ncnc2nc[nH]c12)c1cc2cccc(Cl)c2c(=O)n1-c1ccccc1, the IC50 (second compound 0.0316 µM) is reported as > 10 µM, the IC50 (second compound 0.1 µM) is reported as > 10 µM and the IC50 (second compound 0.316 µM) is reported as > 10 µM. The IC50 (second compound 1 µM) was > 10 µM, the IC50 (second compound 3.16 µM) was > 10 µM and the IC50 (second compound 10 µM) was > 10 µM. It also gave a viability, T/C [1] of 92.8%, a viability, T/C [2] of 112% and a viability, T/C [3] of 121%. It also gave a viability, T/C [4] of 119%, a viability, T/C [5] of 118% and a viability, T/C [6] of 129%. The viability, T/C [7] was 104%, the viability, T/C [8] was 108% and the viability, T/C [9] was 110%. It also gave a viability, T/C [10] of 122%, a viability, T/C [11] of 132% and a viability, T/C [12] of 111%. It also gave a viability, T/C [13] of 94.2%, a viability, T/C [14] of 106% and a viability, T/C [15] of 111%. It also gave a viability, T/C [16] of 118%, a viability, T/C [17] of 113% and a viability, T/C [18] of 128%. For the same molecule, the viability, T/C [19] was 91.1%, the viability, T/C [20] was 97.7% and the viability, T/C [21] was 99%. It also gave a viability, T/C [22] of 118%, a viability, T/C [23] of 110% and a viability, T/C [24] of 113%. It also gave a viability, T/C [25] of 85%, a viability, T/C [26] of 79.2% and a viability, T/C [27] of 79.7%. For the same molecule, the viability, T/C [28] was 88.1%, the viability, T/C [29] was 107% and the viability, T/C [30] was 105%. The viability, T/C [31] was 63.7%, the viability, T/C [32] was 67% and the viability, T/C [33] was 62.3%. The viability, T/C [34] was 82.6%, the viability, T/C [35] was 85.3% and the viability, T/C [36] was 81%.
`CC(Cn1ccc(-c2ccc(C#N)c(Cl)c2)n1)NC(=O)c1cc(C(C)O)[nH]n1` (stereo not drawn) + CC(Nc1ncnc2nc[nH]c12)c1cc2cccc(Cl)c2c(=O)n1-c1ccccc1 was tested, and the IC50 (second compound 0.0316 µM) was > 10 µM, the IC50 (second compound 0.1 µM) was > 10 µM and the IC50 (second compound 0.316 µM) was > 10 µM. For the same molecule, the IC50 (second compound 1 µM) was > 10 µM, the IC50 (second compound 3.16 µM) was > 10 µM and the IC50 (second compound 10 µM) was > 10 µM. For the same molecule, the viability, T/C [1] was 97.5%, the viability, T/C [2] was 100% and the viability, T/C [3] was 101%. The viability, T/C [4] was 91.1%, the viability, T/C [5] was 108% and the viability, T/C [6] was 96%. For the same molecule, the viability, T/C [7] was 98.4%, the viability, T/C [8] was 106% and the viability, T/C [9] was 93.6%. The viability, T/C [10] was 109%, the viability, T/C [11] was 101% and the viability, T/C [12] was 93.5%. It also gave a viability, T/C [13] of 107%, a viability, T/C [14] of 85.7% and a viability, T/C [15] of 90.8%. It also gave a viability, T/C [16] of 88.6%, a viability, T/C [17] of 92.8% and a viability, T/C [18] of 93.4%. It also gave a viability, T/C [19] of 98.2%, a viability, T/C [20] of 91.7% and a viability, T/C [21] of 91.7%. The viability, T/C [22] was 94.4%, the viability, T/C [23] was 97.7% and the viability, T/C [24] was 90.1%. For the same molecule, the viability, T/C [25] was 83.7%, the viability, T/C [26] was 73.6% and the viability, T/C [27] was 72.2%. The viability, T/C [28] was 75.9%, the viability, T/C [29] was 79.9% and the viability, T/C [30] was 70.7%. The viability, T/C [31] was 55.7%, the viability, T/C [32] was 56% and the viability, T/C [33] was 62.8%. It also gave a viability, T/C [34] of 60.5%, a viability, T/C [35] of 59.3% and a viability, T/C [36] of 58.8%.
Work on `CC1(C)CCC(Nc2ncc(C(F)(F)F)c(-c3c[nH]c4c(P(C)(C)=O)c(C#N)ccc34)n2)CN1` (stereo not drawn) + CC(Nc1ncnc2nc[nH]c12)c1cc2cccc(Cl)c2c(=O)n1-c1ccccc1 yielded an IC50 (second compound 0.0316 µM) of 3.67 µM, an IC50 (second compound 0.1 µM) of 3.37 µM and an IC50 (second compound 0.316 µM) of 3.39 µM. The IC50 (second compound 1 µM) was 1.78 µM, the IC50 (second compound 3.16 µM) was < 0.0316 µM and the IC50 (second compound 10 µM) was < 0.0316 µM. The viability, T/C [1] was 52.6%, the viability, T/C [2] was 55.8% and the viability, T/C [3] was 57.6%. For the same molecule, the viability, T/C [4] was 61.3%, the viability, T/C [5] was 56.1% and the viability, T/C [6] was 7.92%. The viability, T/C [7] was 52.2%, the viability, T/C [8] was 53.5% and the viability, T/C [9] was 53.7%. For the same molecule, the viability, T/C [10] was 62.5%, the viability, T/C [11] was 51.9% and the viability, T/C [12] was 6.89%. For the same molecule, the viability, T/C [13] was 60.1%, the viability, T/C [14] was 53.2% and the viability, T/C [15] was 44.6%. It also gave a viability, T/C [16] of 49.9%, a viability, T/C [17] of 56.3% and a viability, T/C [18] of 6.08%. For the same molecule, the viability, T/C [19] was 59.9%, the viability, T/C [20] was 49.7% and the viability, T/C [21] was 49.2%. The viability, T/C [22] was 46.3%, the viability, T/C [23] was 49.2% and the viability, T/C [24] was 5.38%. The viability, T/C [25] was 45.9%, the viability, T/C [26] was 46.7% and the viability, T/C [27] was 49.3%. It also gave a viability, T/C [28] of 44.5%, a viability, T/C [29] of 45.7% and a viability, T/C [30] of 3.11%. The viability, T/C [31] was 38%, the viability, T/C [32] was 36.5% and the viability, T/C [33] was 38.4%. It also gave a viability, T/C [34] of 39.6%, a viability, T/C [35] of 42.1% and a viability, T/C [36] of 1.76%.
